Measurements: patent publication US8859235B2, “Methods in cell cultures, and related inventions, employing certain additives” (priority 2009, dated 2014)

Key:
E. coli BL21 = test: Time course of growth and GFP expression in E. coli BL21 in high cell density fed-batch cultivation in mineral medium; format: cell-based, Escherichia coli; conditions: for RFU/OD / OD: additive 5 mM; for OD Factor / RFU/OD Factor: additive vs control
Procedure: (§1) The measurement of GFP expression by whole cell fluorescence measurements follows the procedure of Scholz et al. (Eur. J. Biochem., 2000,267, 1565-1570). Frozen cell pellets are thawed, resuspended in 1 mL PBS [NaCl (8 g/L), KCl (0.2), of Na2HPO4 (1.44), KH2PO4 (0.24), adjusted to pH 7.4] and subsequently diluted to an optical density of 0.1. GFP fluorescence of whole cells is measured in a Eclipse Fluorometer (Varian) with an excitation wavelength of 400 nm and an emission wavelength of 512 nm. Specific relative fluorescence [RFU/OD600] is calculated by dividing the relative fluorescence emmision units by the optical density of the suspension at 600 nm.
(§2) E. coli BL21 [Novagen, Madison, USA; Genotype: E ompT hsdSB (rB^− mB^−) gal dcm (DE3)] harboring the plasmid pET28a-GFPuv was constructed as detailed in Example 2. A first preculture is initiated from glycerol stocks stored at −80° C. in 3 mL of LB medium containing 0.01% (v/v) Antifoam A (Fluke). After growth for 10-12 h it is used to seed 2×100 mL of mineral medium (as described in Example 1) containing 0.01% Antifoam A (silicone fluid containing a suspension of finely powdered silica to enhance its defoaming efficiency; Dow Corning Corporation, Midland, Mich., USA), in 1 L baffled shake flasks. After 10-12 h this culture is centrifuged, resuspended in 50 mL mineral medium and is used to inoculate the main culture.
(§3) Cultivation is performed in BioFlow110 bioreactors (Total volume 2.2 L; New Brunswick Scientific, Nürtingen, Germany) filled with 1 L of mineral medium plus 0.01% (v/v) Antifoam A for the batch phase. Reactors are equipped with pH, pO2 and foam probes, mass flow controllers to control gas flow and ratio of air and pure oxygen and pumps for automated dosage of base (14% [v/v] aqueous NH3), antifoam (25% [v/v] Antifoam A) and nutrient feed solution. The agitation is set to 500 rpm and air is supplied at a gas flow rate of 2 L/min. The fedbatch culture is inoculated to an OD600 of 0.25-0.5 and allowed to grow unlimited with a specific growth rate of ˜0.5 h^−1. Growth is monitored by measuring OD600. When the dissolved oxygen concentration decreases to 30%, automated adjustment of the air:oxygen ratio in the gas mix is started to control dO2 to 30% using a PID loop. When the gas mix consisted of 100% oxygen a further increase in oxygen transfer is achieved through increasing the agitation rate up to a maximum level of 1200 rpm. When glycerol in the batch medium is completely consumed, as indicated by a distinct drop of pure oxygen in the gas mix, feeding solutions (first containing 70 g/L glycerol and later as cell density increased 200 g/L glycerol in mineral medium) are pumped into the reactor by a predefined exponential fed scheme. The feeding rate is calculated to allow the cells to grow at a growth rate of approximately 0.15 h^−1. During the feeding phase dO2 is also kept at 30%. 3-6 h after starting the feeding protein expression is induced by the addition of 0.2 (w/v) L-arabinose. Samples are taken every hour for OD600 reading and to obtain cell pellets which are stored at −20° C. for further analysis. Analysis of in vivo GFP fluorescence is performed by the method described in Example 1.

E. coli JM109 = test: Growth and GFP expression in high cell density fedbatch cultivation of E. coli JM109 in mineral medium; format: cell-based, Escherichia coli; conditions: for Optical density Value / GFP expression (RFU/OD600) Value: additive 5 mM
Procedure: as §1
as §2, with “A first preculture of E.” for “E.”, “JM109” for “BL21 [Novagen, Madison, USA; Genotype: E ompT hsdSB (rB^− mB^−) gal dcm (DE3)]”, “pBAD-GFPuv” for “pET28a-GFPuv was constructed as detailed in Example 2. A first preculture”, “(Fluka).” for “(Fluke).”, “centrifuged” for “centrifuged,”
as §3, with “incoculated” for “inoculated”, “disolved” for “dissolved”

[1] = cultivation time 16.5 h, 2.5 h after induction
[2] = cultivation time 20.8 h, 6.0 h after induction
[3] = cultivation time 32.5 h, 18 h after induction
[4] = Experiment 1, process time 26.75 h, relative to control = 1

CC1(C)CC(O)CC(C)(C)N1[O] [4-Hydroxy-2,2,6,6-tetramethylpiperidin-1-oxyl]
RFU/OD (E. coli BL21; cultivation time 16.5 h, 2.5 h after induction, control 9.1): 107.9 RFU/OD
OD (E. coli BL21; cultivation time 16.5 h, 2.5 h after induction, control 30.11): 43.57 OD
OD Factor (E. coli BL21; [1]): 1.45
RFU/OD Factor (E. coli BL21; [1]): 11.86
OD (E. coli BL21; cultivation time 20.8 h, 6.0 h after induction, control 48.46): 68.52 OD
RFU/OD (E. coli BL21; cultivation time 20.8 h, 6.0 h after induction, control 264.7): 678.8 RFU/OD
OD Factor (E. coli BL21; [2]): 1.41
RFU/OD Factor (E. coli BL21; [2]): 2.56
OD (E. coli BL21; cultivation time 32.5 h, 18 h after induction, control 83.39): 94.75 OD
RFU/OD (E. coli BL21; cultivation time 32.5 h, 18 h after induction, control 486.5): 873 RFU/OD
OD Factor (E. coli BL21; [3]): 1.14
RFU/OD Factor (E. coli BL21; [3]): 1.79
Optical density Value (E. coli JM109; Experiment 1, process time 26.75 h, control 9.86): 11.86
GFP expression (RFU/OD600) Value (E. coli JM109; Experiment 1, process time 26.75 h, control 211): 535 RFU/OD600
GFP expression Factor (E. coli JM109; [4]): 2.53
Optical density Factor (E. coli JM109; [4]): 1.20
GFP expression (RFU/OD600) Value (E. coli JM109; Experiment 2, process time 18 h, control 0): 190 RFU/OD600
Optical density Value (E. coli JM109; Experiment 2, process time 18 h, control 6.67): 11.42
Optical density Factor (E. coli JM109; Experiment 2, process time 18 h, relative to control = 1): 1.7
